Some test systems named below: A498; COLO 205; EKVX; HL-60; HOP-92; HT-29; KM12; MDA-N; Malme-3M; NCI-H226; NCI-H23; NCI-H522; SK-MEL-5; SK-OV-3; SNB-75; SR; TK-10.
What all share (assay): DTP human tumour cell line panel, 48 h

Broadly, the GI50 is the concentration at which growth is held to half of that of the control.

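Exposure lasted 48 hours, with cells grown in 96-well plates and compounds tested at five concentrations. GI50 is the concentration that inhibits growth by half.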 Active and inactive are the calls of the source. No stated cut-off is given here; in the data, active = GI50 up to about 1.1 µM and inactive = higher.

Regarding `Cc1ccc(NC(=O)c2ccc(OP(=O)(O)Nc3ccc(C)cc3)cc2)cc1`, the GI50 in the assay with A498, in the assay with COLO 205, in the assay on EKVX, in the assay with HL-60, in the assay on HOP-92 and in the assay with HT-29 was > 100 µM (inactive) each time. Besides, the GI50 with KM12 is > 100 µM (inactive); in the assay on MDA-N it was > 100 µM (inactive); with Malme-3M, > 100 µM (inactive); with NCI-H226, > 100 µM (inactive); with NCI-H23, > 100 µM (inactive); in the assay on NCI-H522, 78.3 µM (inactive). The GI50 in the assay with SK-MEL-5, with SK-OV-3, in the assay on SNB-75, in the assay on SR and in the assay with TK-10 was > 100 µM (inactive) throughout.

As for `C=C(C)[C@@H](C(=O)OC)N1C(=O)c2ccccc2C1=O`, the GI50 with A498, in the assay on COLO 205, in the assay with EKVX, in the assay on HL-60, in the assay on HOP-92 and with HT-29 was > 100 µM (inactive) throughout. Also, the GI50 with KM12, in the assay with MDA-N, with Malme-3M, in the assay with NCI-H226, in the assay on NCI-H23 and in the assay on NCI-H522 was > 100 µM (inactive) throughout. Also, the GI50 with SK-MEL-5, with SK-OV-3, with SNB-75, in the assay with SR and in the assay on TK-10 was > 100 µM (inactive) in each case.

With `OC(COc1ccccc1)CN1CCCCC1` (centres undefined), the GI50 with A498 is > 100 µM (inactive); in the assay on COLO 205, > 100 µM (inactive); in the assay with EKVX, 63.4 µM (inactive); in the assay with HL-60, > 100 µM (inactive); in the assay on HOP-92, > 100 µM (inactive); in the assay on HT-29, > 100 µM (inactive). The GI50 in the assay with KM12, in the assay on MDA-N, in the assay with Malme-3M, with NCI-H226, in the assay with NCI-H23 and with NCI-H522 was > 100 µM (inactive) each time. For the same compound, the GI50 in the assay on SK-MEL-5, with SK-OV-3, in the assay on SNB-75, in the assay on SR and in the assay with TK-10 was > 100 µM (inactive) in each case.

As to `OCC1CCCC(n2cnc3c(S)ncnc32)O1` (centres undefined), the GI50 was > 100 µM (inactive) with A498; > 100 µM (inactive) with COLO 205; > 100 µM (inactive) with EKVX; 0.0252 µM (active) in the assay with HL-60; > 100 µM (inactive) with HOP-92; > 100 µM (inactive) in the assay on HT-29. Further, the GI50 with KM12, in the assay with MDA-N, in the assay on Malme-3M, in the assay on NCI-H226, with NCI-H23 and in the assay on NCI-H522 was > 100 µM (inactive) in each case. Also, the GI50 in the assay on SK-MEL-5, with SK-OV-3, with SNB-75, in the assay on SR and in the assay with TK-10 was > 100 µM (inactive) each time.

`CCOC(=O)/C=C(/C(=O)OCC)n1cc(C)c(=O)[nH]c1=O`: the GI50 in the assay with A498 was 12.9 µM (inactive); in the assay on COLO 205, 1.81 µM (inactive); with EKVX, 3.33 µM (inactive); with HL-60 it was 1.67 µM (inactive); in the assay with HOP-92 it was 1.71 µM (inactive); in the assay on HT-29, 4.92 µM (inactive). The GI50 was 14.2 µM (inactive) with KM12; 5.83 µM (inactive) in the assay on MDA-N; 2.29 µM (inactive) in the assay on Malme-3M; 5.46 µM (inactive) with NCI-H226; 5.56 µM (inactive) with NCI-H23; 0.792 µM (active) with NCI-H522. Also, the GI50 in the assay on SK-MEL-5 was 8.81 µM (inactive); with SK-OV-3 it was 18.3 µM (inactive); in the assay on SNB-75, 10.3 µM (inactive); in the assay with SR, 1.92 µM (inactive); in the assay with TK-10 it was 2.52 µM (inactive).

`COc1cc(CSc2ccc(O)cc2)cc(OC)c1OC`: the GI50 in the assay on A498 is 93.3 µM (inactive); in the assay with COLO 205 it was 67.8 µM (inactive); in the assay with EKVX, 39.8 µM (inactive); with HL-60, 20.4 µM (inactive); in the assay with HOP-92, 19.3 µM (inactive); with HT-29, 50.4 µM (inactive). The GI50 is 30.2 µM (inactive) with KM12; 30.5 µM (inactive) in the assay on MDA-N; 27.5 µM (inactive) in the assay on Malme-3M; 29 µM (inactive) with NCI-H226; 28.6 µM (inactive) with NCI-H23; 29.3 µM (inactive) with NCI-H522. The GI50 in the assay on SK-MEL-5 is 18 µM (inactive); with SK-OV-3 it was 62.2 µM (inactive); with SNB-75 it was 23.1 µM (inactive); with SR, 24.1 µM (inactive); in the assay with TK-10 it was 75.2 µM (inactive).

Regarding `OC(CCN1CCN(CCOC(c2ccc(F)cc2)c2ccc(F)cc2)CC1)c1ccccc1` (centres undefined), the GI50 in the assay with A498 is 5.06 µM (inactive); in the assay with COLO 205, 4.09 µM (inactive); in the assay on EKVX, 12.9 µM (inactive); with HL-60 it was 15.9 µM (inactive); with HOP-92, 10.3 µM (inactive); in the assay with HT-29, 8.65 µM (inactive). The GI50 with KM12 was 18.5 µM (inactive); in the assay with MDA-N, 15.1 µM (inactive); with Malme-3M, 13.4 µM (inactive); with NCI-H226, 15 µM (inactive); with NCI-H23 it was 16.6 µM (inactive); in the assay on NCI-H522, 14.4 µM (inactive). For the same compound, the GI50 was 7.6 µM (inactive) in the assay on SK-MEL-5; 16.3 µM (inactive) in the assay on SK-OV-3; 13.5 µM (inactive) in the assay with SNB-75; 5.48 µM (inactive) with SR; 15 µM (inactive) in the assay with TK-10.

On to `Cc1cc(C)c2c(O)cc(-c3ccc4ccccc4c3)nc2n1`, for which the GI50 in the assay with A498 is 3.9 µM (inactive); in the assay with COLO 205 it was 18.3 µM (inactive); with EKVX it was 29.5 µM (inactive); in the assay on HL-60, 3.04 µM (inactive); with HOP-92, 11.1 µM (inactive); with HT-29 it was 12.1 µM (inactive). Also, the GI50 with KM12 is 6.04 µM (inactive); in the assay with MDA-N, 3.34 µM (inactive); in the assay with Malme-3M, 21.6 µM (inactive); in the assay with NCI-H226, 19.5 µM (inactive); in the assay on NCI-H23 it was 30.8 µM (inactive); in the assay with NCI-H522, 21.4 µM (inactive). In addition, the GI50 with SK-MEL-5 was 2.7 µM (inactive); with SK-OV-3, 33.3 µM (inactive); in the assay with SNB-75, 15.8 µM (inactive); with SR, 5.98 µM (inactive); in the assay with TK-10 it was 31 µM (inactive).

As to `C=C1C(=O)OC2CC(C)C(/C=C/C(C)=O)=CCC12` (centres undefined), the GI50 is > 100 µM (inactive) with A498; 90.6 µM (inactive) with COLO 205; > 100 µM (inactive) with EKVX; 33.1 µM (inactive) in the assay on HL-60; > 100 µM (inactive) in the assay on HOP-92; > 100 µM (inactive) in the assay with HT-29. Also, the GI50 in the assay on KM12 was > 100 µM (inactive); in the assay on MDA-N, > 100 µM (inactive); with Malme-3M it was 10.7 µM (inactive); in the assay with NCI-H226, > 100 µM (inactive); in the assay on NCI-H23 it was > 100 µM (inactive); in the assay with NCI-H522 it was 29.8 µM (inactive). Moreover, the GI50 is 71.8 µM (inactive) in the assay on SK-MEL-5; > 100 µM (inactive) in the assay on SK-OV-3; 2.99 µM (inactive) in the assay on SNB-75; 57.9 µM (inactive) in the assay with SR; > 100 µM (inactive) in the assay with TK-10.

In the case of `CCCCn1c2c(n(CCCC)c1=S)-c1c(n(CCCC)c(=S)n1CCCC)SSc1c(n(CCCC)c(=S)n1CCCC)-c1c(n(CCCC)c(=S)n1CCCC)SSc1c(n(CCCC)c(=S)n1CCCC)-c1c(n(CCCC)c(=S)n1CCCC)SS2`, the GI50 in the assay on A498 was > 50 µM (inactive); with COLO 205 it was 2.64 µM (inactive); in the assay with EKVX it was 5.37 µM (inactive); in the assay on HL-60, 1.75 µM (inactive); in the assay with HOP-92, 1.65 µM (inactive); with HT-29, 11.6 µM (inactive). Further, the GI50 in the assay with KM12 was 19.4 µM (inactive); with MDA-N, 7.41 µM (inactive); in the assay on Malme-3M, 1.57 µM (inactive); with NCI-H226 it was 10 µM (inactive); in the assay on NCI-H23, 16.3 µM (inactive); in the assay on NCI-H522, 0.78 µM (active). Moreover, the GI50 in the assay on SK-MEL-5 was 12 µM (inactive); with SK-OV-3 it was > 29.2 µM (inactive); in the assay on SNB-75 it was 10.1 µM (inactive); in the assay on SR, 1.88 µM (inactive); with TK-10, > 30.2 µM (inactive).

In the case of `CCCCCNC(=O)c1cc2cc(CCl)ccc2oc1=O`, the GI50 with A498 was 1.86 µM (inactive); with COLO 205, 1.33 µM (inactive); in the assay on EKVX it was 4.41 µM (inactive); with HL-60 it was 1.9 µM (inactive); in the assay on HOP-92 it was 1.95 µM (inactive); in the assay on HT-29 it was 2.42 µM (inactive). For the same compound, the GI50 in the assay on KM12 was 10.2 µM (inactive); in the assay on MDA-N, 9.42 µM (inactive); with Malme-3M, 2.36 µM (inactive); in the assay on NCI-H226 it was 14.2 µM (inactive); in the assay on NCI-H23, 2.62 µM (inactive); in the assay on NCI-H522, 3.24 µM (inactive). Moreover, the GI50 with SK-MEL-5 is 16.6 µM (inactive); in the assay with SK-OV-3, 5.19 µM (inactive); with SNB-75, 4.44 µM (inactive); in the assay on SR, 5.38 µM (inactive); in the assay on TK-10, 1.52 µM (inactive).

Consider `Cc1nc(N)nc(S)c1CCCNc1ccccc1`, for which the GI50 with A498 is 26.1 µM (inactive); with COLO 205, 23.5 µM (inactive); in the assay with EKVX, 60 µM (inactive); with HL-60 it was 50 µM (inactive); with HOP-92, > 100 µM (inactive); in the assay with HT-29 it was 68.7 µM (inactive). Also, the GI50 is 76.7 µM (inactive) with KM12; 52 µM (inactive) in the assay with MDA-N; 35.6 µM (inactive) in the assay with Malme-3M; > 100 µM (inactive) in the assay with NCI-H226; 88.5 µM (inactive) in the assay with NCI-H23; 34.4 µM (inactive) in the assay with NCI-H522. Also, the GI50 with SK-MEL-5 is 27.5 µM (inactive); in the assay with SK-OV-3, > 100 µM (inactive); in the assay with SNB-75, > 100 µM (inactive); in the assay on SR, 3.6 µM (inactive); in the assay on TK-10, 63.8 µM (inactive).

Values taken from ChEMBL document CHEMBL1201862, “PubChem BioAssay data set” (2004).
